Reference: patent publication US10670605B2, “Cysteine reactive probes and uses thereof” (The Scripps Research Institute, priority 2015, dated 2020)

How the values were obtained:
[1] = system: cysteines in MDA-MB-231 and Ramos cell proteomes; test: Competitive isoTOP-ABPP in cell lysates (in vitro): proteomic reactivity / liganded cysteine rate; assay type: binding, human; settings: for proteomic reactivity value (liganded cysteine rate): fragment 500 μM, % of quantified cysteines with R ≥4
Procedure: All cell lines were obtained from ATCC, were used with a low passage number and were grown at 37° C. with 5% CO2. MDA-MB-231 cells and HEK-293T cells were grown in DMEM supplemented with 10% fetal bovine serum, penicillin, streptomycin and glutamine. Jurkat, Ramos and MUM2C cells were grown in RPMI-1640 medium supplemented with 10% fetal bovine serum, penicillin and streptomycin. For in vitro labeling, cells were grown to 100% confluence for MDA-MB-231 cells or until cell density reached 1.5 million cells/mL for Ramos and Jurkat cells. […] Cell pellets were lysed by sonication and fractionated (100,000 g, 45 min) to yield soluble and membrane fractions, which were then adjusted to a final protein concentration of 1.5 mg/mL for proteomics experiments and 1 mg/mL for gel-based ABPP experiments. The soluble lysate was prepared fresh from frozen pellets directly before each experiment. Protein concentration was determined using the Bio-Rad DC™ protein assay kit.
For each sample, 100 μL of streptavidin-agarose beads slurry (Pierce) was washed in 10 mL PBS and then resuspended in 5 mL PBS. The SDS-solubilized proteins were added to the suspension of streptavidin-agarose beads and the bead mixture was rotated for 3 h at ambient temperature. After incubation, the beads were pelleted by centrifugation (1,400 g, 3 min) and were washed (2×10 mL PBS and 2×10 mL water).
The beads were transferred to eppendorf tubes with 1 mL PBS, centrifuged (1,400 g, 3 min), and resuspended in PBS containing 6 M urea (500 μL). To this was added 10 mM DTT (25 μL of a 200 mM stock in water) and the beads were incubated at 65° C. for 15 mins. 20 mM iodoacetamide (25 μL of a 400 mM stock in water) was then added and allowed to react at 37° C. for 30 mins with shaking. The bead mixture was diluted with 900 μL PBS, pelleted by centrifugation (1,400 g, 3 min), and resuspended in 200 μL PBS. To this was added 1 mM CaCl2 ([…]) and trypsin (2 μg, Promega, sequencing grade) and the digestion was allowed to proceed overnight at 37° C. with shaking. The beads were separated from the digest with Micro Bio-Spin columns (Bio-Rad) by centrifugation (1,000 g, 1 min), washed (2×1 mL PBS and 2×1 mL water) and then transferred to fresh eppendorfs with 1 mL water. The washed beads were washed once further in 140 μL TEV buffer (50 mM Tris, pH 8, 0.5 mM EDTA, 1 mM DTT) and then resuspended in 140 μL TEV buffer. 5 μL TEV protease (80 μM) was added and the reactions were rotated overnight at 29° C. The TEV digest was separated from the beads with Micro Bio-Spin columns by centrifugation (1,400 g, 3 min) and the beads were washed once with water (100 μL). The samples were then acidified to a final concentration of 5% (v/v) formic acid and stored at −80° C. prior to analysis.

[2] = biological target: T1, IMPDH2 (C140) (Homo sapiens, UniProt P12268); test: Click probe 18 labeling of recombinant IMPDH2 and its competition; assay type: binding; settings: probe 18 25 μM
T1 construct: Full length cDNAs encoding for IDH1 (Open Biosystems, Clone ID: 3880331) and IMPDH2 (Open Biosystems, Clone ID: 3447994); His6 (C); made in house; host or cells: E. coli BL21(DE3)

[3] = system: protein targets in MDA-MB-231 cells; test: Whole protein capture with click probes (SILAC proteomics), native vs heat denatured; assay type: binding, human; settings: proteins liganded by parent fragment (3 / 14) and enriched by click probe (19 / 18)
Procedure: Protein enrichment by 18 and 19 was measured by whole protein capture of isotopically-SILAC labeled MDA-MB-231 cells using quantitative (SILAC) proteomics.

[4] = biological target: T2, ACAT1 C119 (P24752) (Homo sapiens, UniProt P24752); test: Competitive isoTOP-ABPP, cell lysates; assay type: binding; settings: 500 μm, in-vitro_ramos_231
T2 sequence (P24752 34-427): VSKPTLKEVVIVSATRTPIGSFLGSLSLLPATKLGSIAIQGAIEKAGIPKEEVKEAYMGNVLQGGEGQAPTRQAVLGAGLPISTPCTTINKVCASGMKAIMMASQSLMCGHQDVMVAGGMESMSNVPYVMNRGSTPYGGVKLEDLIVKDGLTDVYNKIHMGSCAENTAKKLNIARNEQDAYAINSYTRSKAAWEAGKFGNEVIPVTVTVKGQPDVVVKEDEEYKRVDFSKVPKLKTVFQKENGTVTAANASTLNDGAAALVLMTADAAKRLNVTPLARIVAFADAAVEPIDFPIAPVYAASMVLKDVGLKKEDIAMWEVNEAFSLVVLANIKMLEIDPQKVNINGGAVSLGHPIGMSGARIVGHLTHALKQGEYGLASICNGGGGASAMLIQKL

[5] = biological target: T3, ACAT1 C196 (P24752) (Homo sapiens, UniProt P24752); test: Competitive isoTOP-ABPP, cell lysates; assay type: binding; settings: 500 μm, in-vitro_ramos_231
T3 sequence (P24752 34-427): T2 sequence (P24752 34-427)

[6] = biological target: PRMT1 C109 (Q99873) (Homo sapiens, UniProt Q99873); test: Competitive isoTOP-ABPP, cell lysates; assay type: binding; settings: 500 μm, in-vitro_ramos_231;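 also: Heavy/light ratio DMSO over fragment-treated so higher means more cysteine engagement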
PRMT1 C109 (Q99873), sequence (Q99873 whole entry, the tested form may be a part): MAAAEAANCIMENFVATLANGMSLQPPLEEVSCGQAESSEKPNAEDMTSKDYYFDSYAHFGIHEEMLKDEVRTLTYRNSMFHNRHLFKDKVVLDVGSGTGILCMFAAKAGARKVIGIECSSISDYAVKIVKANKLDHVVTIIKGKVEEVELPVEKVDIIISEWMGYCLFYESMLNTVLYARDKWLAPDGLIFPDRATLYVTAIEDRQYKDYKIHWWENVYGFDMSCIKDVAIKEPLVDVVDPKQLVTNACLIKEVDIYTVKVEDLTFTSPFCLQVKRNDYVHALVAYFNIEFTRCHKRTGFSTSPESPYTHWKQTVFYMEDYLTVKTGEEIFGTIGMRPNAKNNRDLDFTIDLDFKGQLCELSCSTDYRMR
Procedure: (§1) TEV digests were pressure loaded onto a 250 μm (inner diameter) fused silica capillary column packed with C18 resin (Aqua 5 μm, Phenomenex). The samples were analyzed by multidimensional liquid chromatography tandem mass spectrometry (MudPIT), using an LTQ-Velos Orbitrap mass spectrometer (Thermo Scientific) coupled to an Agilent 1200-series quaternary pump. The peptides were eluted onto a biphasic column with a 5 μm tip (100 μm fused silica, packed with C18 (10 cm) and bulk strong cation exchange resin (3 cm, SCX, Phenomenex,)) in a 5-step MudPIT experiment, using 0%, 30%, 60%, 90%, and 100% salt bumps of 500 mM aqueous ammonium acetate and using a gradient of 5-100% buffer B in buffer A (buffer A: 95% water, 5% acetonitrile, 0.1% formic acid; buffer B: 5% water, 95% acetonitrile, 0.1% formic acid) as has been described in Weerapana et al. Nat Protoc 2:1414-1425 (2007). Data was collected in data-dependent acquisition mode with dynamic exclusion enabled (20 s, repeat of 2). One full MS (MS1) scan (400-1800 m/z) was followed by 30 MS2 scans (ITMS) of the nth most abundant ions.
(§2) The ratios of heavy/light for each unique peptide (DMSO/compound treated; isoTOP-ABPP ratios, R values) were quantified with in-house CIMAGE software, using default parameters (3 ms s per peak and signal to noise threshold 2.5). Site-specific engagement of electrophilic fragments was assessed by blockade of IA-alkyne probe labeling. […] Ratios for unique peptide entries were calculated for each experiment; overlapping peptides with the same modified cysteine (e.g. different charge states, MudPIT chromatographic steps or tryptic termini) were grouped together and the median ratio was reported as the final ratio (R). The peptide ratios reported by CIMAGE were further filtered to ensure the removal or correction of low quality ratios in each individual dataset. The quality filters applied were the following: removal of half tryptic peptides; for ratios with high standard deviations from the median (90% of the median or above) the lowest ratio was taken instead of the median; removal of peptides with R=20 and only a single ms2 event triggered during the elution of the parent ion; manual annotation of all the peptides with ratios of 20, removing any peptides with low-quality elution profiles that remained after the previous curation steps. Proteome reactivity values for individual fragments were computed as the percentage of the total quantified cysteine-containing peptides with R values≥4 (defined as liganded cysteines) for each replicate experiment and the final proteome reactivity value was calculated as the mean for all replicate experiments for each fragment from both MDA-MB-231 and Ramos cellular proteomes.
(§3) Biological replicates of the same compound and cell-line were averaged if the standard deviation was below 60% of the mean; otherwise the lowest value of the ratio set was taken.

[7] = biological target: DCUN1D1 C115 (Q96GG9) (Homo sapiens, UniProt Q96GG9); test: Competitive isoTOP-ABPP, cell lysates; assay type: binding; settings: 500 μm, in-vitro_ramos_231
DCUN1D1 C115 (Q96GG9), sequence (Q96GG9 whole entry): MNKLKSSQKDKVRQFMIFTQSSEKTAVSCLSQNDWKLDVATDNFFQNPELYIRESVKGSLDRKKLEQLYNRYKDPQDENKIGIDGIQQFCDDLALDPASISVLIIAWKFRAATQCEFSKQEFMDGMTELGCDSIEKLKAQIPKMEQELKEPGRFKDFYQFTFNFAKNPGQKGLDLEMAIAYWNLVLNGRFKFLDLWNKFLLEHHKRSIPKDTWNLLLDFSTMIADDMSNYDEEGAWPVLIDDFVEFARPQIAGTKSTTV
Procedure: as §1, §2, §3

[8] = biological target: STAT3 C259 (P40763) (Homo sapiens, UniProt P40763); test: Competitive isoTOP-ABPP, cell lysates; assay type: binding; settings: 500 μm, in-vitro_ramos_231
STAT3 C259 (P40763), sequence (P40763 whole entry): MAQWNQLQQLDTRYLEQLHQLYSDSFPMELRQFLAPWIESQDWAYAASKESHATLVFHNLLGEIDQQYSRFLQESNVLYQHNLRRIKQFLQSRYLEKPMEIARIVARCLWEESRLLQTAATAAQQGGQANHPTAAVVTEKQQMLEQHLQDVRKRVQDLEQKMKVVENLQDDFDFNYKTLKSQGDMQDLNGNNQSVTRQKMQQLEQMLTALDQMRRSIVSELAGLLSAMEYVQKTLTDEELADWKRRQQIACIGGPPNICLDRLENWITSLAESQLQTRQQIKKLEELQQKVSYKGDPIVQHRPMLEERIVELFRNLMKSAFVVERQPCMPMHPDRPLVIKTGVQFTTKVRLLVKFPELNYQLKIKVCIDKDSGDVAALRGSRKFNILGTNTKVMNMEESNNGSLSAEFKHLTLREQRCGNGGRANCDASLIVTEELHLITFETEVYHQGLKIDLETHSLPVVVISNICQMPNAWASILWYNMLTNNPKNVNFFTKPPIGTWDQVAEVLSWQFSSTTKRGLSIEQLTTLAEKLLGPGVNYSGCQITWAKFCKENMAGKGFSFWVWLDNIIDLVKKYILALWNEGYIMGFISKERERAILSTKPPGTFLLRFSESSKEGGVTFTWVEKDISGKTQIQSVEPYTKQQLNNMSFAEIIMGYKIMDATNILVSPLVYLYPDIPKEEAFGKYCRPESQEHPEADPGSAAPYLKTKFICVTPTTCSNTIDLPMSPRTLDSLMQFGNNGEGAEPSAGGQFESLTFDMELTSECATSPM
Procedure: as §1, §2, §3

[9] = biological target: MLTK C22 (Q9NYL2) (Homo sapiens, UniProt Q9NYL2); test: Competitive isoTOP-ABPP, cell lysates; assay type: binding; settings: 500 μm, in-vitro_ramos_231
MLTK C22 (Q9NYL2), sequence (Q9NYL2 whole entry): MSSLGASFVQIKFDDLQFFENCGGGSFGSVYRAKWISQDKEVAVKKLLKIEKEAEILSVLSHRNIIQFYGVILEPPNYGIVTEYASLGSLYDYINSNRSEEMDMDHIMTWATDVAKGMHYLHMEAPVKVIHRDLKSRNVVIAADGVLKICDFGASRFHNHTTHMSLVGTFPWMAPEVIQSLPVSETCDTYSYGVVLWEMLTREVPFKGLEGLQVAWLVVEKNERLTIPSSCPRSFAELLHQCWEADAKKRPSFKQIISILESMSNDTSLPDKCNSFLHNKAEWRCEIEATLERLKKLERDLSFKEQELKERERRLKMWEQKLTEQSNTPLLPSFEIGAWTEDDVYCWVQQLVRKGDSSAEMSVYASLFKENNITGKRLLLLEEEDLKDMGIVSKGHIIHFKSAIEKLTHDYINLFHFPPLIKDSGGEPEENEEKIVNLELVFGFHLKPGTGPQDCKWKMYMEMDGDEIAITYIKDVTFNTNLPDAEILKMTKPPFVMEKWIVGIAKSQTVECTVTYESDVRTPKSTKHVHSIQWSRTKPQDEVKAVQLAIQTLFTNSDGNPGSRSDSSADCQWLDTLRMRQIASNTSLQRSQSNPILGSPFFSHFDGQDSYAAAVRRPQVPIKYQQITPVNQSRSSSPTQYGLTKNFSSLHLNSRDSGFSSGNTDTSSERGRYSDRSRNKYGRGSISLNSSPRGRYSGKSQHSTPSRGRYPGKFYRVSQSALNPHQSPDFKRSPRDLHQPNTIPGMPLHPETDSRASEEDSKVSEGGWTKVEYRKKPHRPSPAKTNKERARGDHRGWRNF
Procedure: as §1, §2, §3

[10] = biological target: XPO1 C34 (O14980) (Homo sapiens, UniProt O14980); test: Competitive isoTOP-ABPP, cell lysates; assay type: binding; settings: 500 μm, in-vitro_ramos_231
XPO1 C34 (O14980), sequence (O14980 whole entry): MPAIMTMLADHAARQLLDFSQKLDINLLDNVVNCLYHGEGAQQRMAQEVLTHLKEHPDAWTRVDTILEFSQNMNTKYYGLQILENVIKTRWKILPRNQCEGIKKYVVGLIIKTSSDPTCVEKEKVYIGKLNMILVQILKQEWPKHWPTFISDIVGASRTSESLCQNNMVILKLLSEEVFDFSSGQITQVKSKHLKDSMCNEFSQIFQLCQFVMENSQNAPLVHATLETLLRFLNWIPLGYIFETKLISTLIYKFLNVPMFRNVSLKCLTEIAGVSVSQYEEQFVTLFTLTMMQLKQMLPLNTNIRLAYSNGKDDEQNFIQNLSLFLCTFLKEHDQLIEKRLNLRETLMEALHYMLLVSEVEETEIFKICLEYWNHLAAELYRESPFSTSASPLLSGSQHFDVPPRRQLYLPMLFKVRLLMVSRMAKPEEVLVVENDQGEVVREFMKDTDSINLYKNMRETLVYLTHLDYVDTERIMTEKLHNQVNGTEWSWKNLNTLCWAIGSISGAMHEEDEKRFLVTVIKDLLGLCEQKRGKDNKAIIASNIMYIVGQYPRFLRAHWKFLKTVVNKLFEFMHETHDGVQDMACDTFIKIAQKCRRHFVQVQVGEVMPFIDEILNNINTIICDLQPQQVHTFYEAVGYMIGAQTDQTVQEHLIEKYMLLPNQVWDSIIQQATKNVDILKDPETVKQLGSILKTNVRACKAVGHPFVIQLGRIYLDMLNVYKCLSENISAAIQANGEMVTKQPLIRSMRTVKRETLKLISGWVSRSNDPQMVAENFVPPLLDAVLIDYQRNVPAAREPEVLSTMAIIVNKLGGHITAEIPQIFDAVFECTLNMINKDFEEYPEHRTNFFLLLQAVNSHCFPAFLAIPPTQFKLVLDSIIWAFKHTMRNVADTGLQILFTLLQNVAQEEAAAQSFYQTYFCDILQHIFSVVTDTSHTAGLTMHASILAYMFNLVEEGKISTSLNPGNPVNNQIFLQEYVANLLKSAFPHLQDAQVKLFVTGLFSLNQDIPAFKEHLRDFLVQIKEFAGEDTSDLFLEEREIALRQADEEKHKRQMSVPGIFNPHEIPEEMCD
Procedure: as §1, §2, §3

[11] = biological target: T4, PDIA6 C190 (Q15084) (Homo sapiens, UniProt Q15084); test: Competitive isoTOP-ABPP, cell lysates; assay type: binding; settings: 500 μm, in-vitro_ramos_231;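 also: Heavy/light ratio DMSO over fragment-treated so higher means more cysteine engagement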
T4 sequence (Q15084 20-440): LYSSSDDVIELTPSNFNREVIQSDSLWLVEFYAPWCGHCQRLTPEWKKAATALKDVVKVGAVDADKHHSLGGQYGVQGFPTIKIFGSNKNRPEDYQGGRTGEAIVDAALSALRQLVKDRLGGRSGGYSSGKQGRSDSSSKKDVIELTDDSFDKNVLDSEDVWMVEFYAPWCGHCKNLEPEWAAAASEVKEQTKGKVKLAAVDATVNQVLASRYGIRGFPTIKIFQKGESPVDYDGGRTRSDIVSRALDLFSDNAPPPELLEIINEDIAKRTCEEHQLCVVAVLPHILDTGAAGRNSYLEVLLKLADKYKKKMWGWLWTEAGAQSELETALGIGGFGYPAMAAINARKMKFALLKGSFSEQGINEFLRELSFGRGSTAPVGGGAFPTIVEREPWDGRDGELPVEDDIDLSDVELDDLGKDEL
Procedure: as §1, §2, §3

[12] = biological target: CASP8 C360 (Q14790) (Homo sapiens, UniProt Q14790); test: Competitive isoTOP-ABPP, cell lysates; assay type: binding
CASP8 C360 (Q14790), sequence (Q14790 whole entry): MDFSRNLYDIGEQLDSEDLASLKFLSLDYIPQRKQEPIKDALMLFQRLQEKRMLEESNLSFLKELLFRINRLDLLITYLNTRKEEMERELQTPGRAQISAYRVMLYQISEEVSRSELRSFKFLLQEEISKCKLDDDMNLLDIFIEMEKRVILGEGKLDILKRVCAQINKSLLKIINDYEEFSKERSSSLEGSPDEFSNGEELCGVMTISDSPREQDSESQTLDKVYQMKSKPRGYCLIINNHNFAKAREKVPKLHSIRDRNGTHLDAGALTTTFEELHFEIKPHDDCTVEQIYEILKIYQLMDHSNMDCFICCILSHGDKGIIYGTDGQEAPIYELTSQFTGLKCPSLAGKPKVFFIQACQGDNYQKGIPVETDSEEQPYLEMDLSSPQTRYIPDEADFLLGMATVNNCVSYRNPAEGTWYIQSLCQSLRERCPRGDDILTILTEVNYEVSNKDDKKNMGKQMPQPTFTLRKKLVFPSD
Procedure: as §1, §2, §3

[13] = biological target: GSTP1 C48 (P09211) (Homo sapiens, UniProt P09211); test: Competitive isoTOP-ABPP, cell lysates; assay type: binding; settings: 500 μm, in-vitro_ramos_231;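 also: Heavy/light ratio DMSO over fragment-treated so higher means more cysteine engagement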
GSTP1 C48 (P09211), sequence (P09211 whole entry, the tested form may be a part): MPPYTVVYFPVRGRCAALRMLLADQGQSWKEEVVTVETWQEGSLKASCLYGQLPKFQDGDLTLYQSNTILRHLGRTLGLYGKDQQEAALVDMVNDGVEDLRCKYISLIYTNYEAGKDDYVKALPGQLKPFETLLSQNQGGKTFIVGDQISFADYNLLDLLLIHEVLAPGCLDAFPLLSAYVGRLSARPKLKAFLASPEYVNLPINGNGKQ
Procedure: as §1, §2, §3

[14] = biological target: IDH1 C269 (O75874) (Homo sapiens, UniProt O75874); test: Competitive isoTOP-ABPP, cell lysates; assay type: binding; settings: 500 μm, in-vitro_ramos_231
IDH1 C269 (O75874), sequence (O75874 whole entry): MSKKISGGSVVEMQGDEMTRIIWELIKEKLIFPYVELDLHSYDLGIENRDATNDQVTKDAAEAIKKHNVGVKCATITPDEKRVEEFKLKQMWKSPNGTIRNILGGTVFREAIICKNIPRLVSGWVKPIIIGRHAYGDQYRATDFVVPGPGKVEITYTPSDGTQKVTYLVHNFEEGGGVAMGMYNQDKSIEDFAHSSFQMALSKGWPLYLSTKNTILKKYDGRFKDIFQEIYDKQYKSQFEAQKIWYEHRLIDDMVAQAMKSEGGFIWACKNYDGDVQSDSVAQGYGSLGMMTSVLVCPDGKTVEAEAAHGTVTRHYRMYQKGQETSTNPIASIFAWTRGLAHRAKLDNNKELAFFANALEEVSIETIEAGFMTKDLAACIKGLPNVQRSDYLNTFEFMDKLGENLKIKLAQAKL
Procedure: as §1, §2, §3

[15] = biological target: T5, PDIA6 C55 (Q15084) (Homo sapiens, UniProt Q15084); test: Competitive isoTOP-ABPP, cell lysates; assay type: binding; settings: 500 μm, in-vitro_ramos_231
T5 sequence (Q15084 20-440): T4 sequence (Q15084 20-440)
Procedure: as §1, §2, §3

[16] = biological target: T6, ACAT1 C126 (P24752) (Homo sapiens, UniProt P24752); test: Competitive isoTOP-ABPP, cell lysates; assay type: binding; settings: 500 μm, in-vitro_ramos_231
T6 sequence (P24752 34-427): T2 sequence (P24752 34-427)

[17] = biological target: T7, ACAT1 C413 (P24752) (Homo sapiens, UniProt P24752); test: Competitive isoTOP-ABPP, cell lysates; assay type: binding; settings: 500 μm, in-vitro_ramos_231
T7 sequence (P24752 34-427): T2 sequence (P24752 34-427)

[18] = biological target: T8, pro-CASP8 (Homo sapiens, UniProt Q14790, D374A/D384A); test: Click probe 61 labeling of pro-CASP8 and its competition; assay type: binding
T8 construct: a truncated CASP8 (residues 217-479) without the CARD domain; His6 (C); made in house; host or cells: E. coli BL21(DE3)pLysS
T8 sequence (Q14790 217-479 D374A/D384A): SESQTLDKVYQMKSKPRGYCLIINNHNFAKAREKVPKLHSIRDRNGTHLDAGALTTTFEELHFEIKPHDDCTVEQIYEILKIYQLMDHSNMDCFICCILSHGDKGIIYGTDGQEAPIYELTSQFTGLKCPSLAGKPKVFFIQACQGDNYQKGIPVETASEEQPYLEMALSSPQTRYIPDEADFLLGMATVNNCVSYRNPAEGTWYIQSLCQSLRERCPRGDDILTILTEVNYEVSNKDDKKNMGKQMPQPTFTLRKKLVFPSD

SMILES: C=CC(=O)Nc1cc(C(F)(F)F)cc(C(F)(F)F)c1 [compound 14]
- proteomic reactivity value (liganded cysteine rate) [1]: 3.4%
- inhibition of 18 labeling of IMPDH2 by fragments [2]: inhibited

SMILES: CC(=O)Nc1cc(C(F)(F)F)cc(C(F)(F)F)c1 [compound 17]
- relative proteomic reactivity (in words) ([1]; 500 μM, electrophiles on common 3,5-di(trifluoromethyl)phenyl group): negligible activity
- proteomic reactivity value (liganded cysteine rate) [1]: < 0.2%

SMILES: C#CCCCCNC(=O)c1cc(NC(=O)CCl)cc(C(F)(F)F)c1 [compound 19]
- percentage of quantified protein targets sensitive to heat denaturation [3]: 64%

SMILES: Cc1ncc(CO)c(CNC(=O)CCl)c1O [compound 54]
- isoTOP-ABPP reactivity profile ratio, P24752_C119 [4]: 1.0
- isoTOP-ABPP reactivity profile ratio, P24752_C196 [5]: 1.1
- isoTOP-ABPP reactivity profile ratio, Q99873_C109 [6]: 1.2
- isoTOP-ABPP reactivity profile ratio, Q96GG9_C115 [7]: 1.1
- isoTOP-ABPP reactivity profile ratio, P40763_C259 [8]: 1.3
- isoTOP-ABPP reactivity profile ratio, Q9NYL2_C22 [9]: 1.1
- isoTOP-ABPP reactivity profile ratio, O14980_C34 [10]: 1.1
- isoTOP-ABPP reactivity profile ratio, Q15084_C190 [11]: 1.2
- isoTOP-ABPP reactivity profile ratio, Q14790_C360 ([12]; 500 μm, in-vitro_ramos_231): 1.2
- isoTOP-ABPP reactivity profile ratio, P09211_C48 [13]: 1.3
- isoTOP-ABPP reactivity profile ratio, O75874_C269 [14]: 1.1
- isoTOP-ABPP reactivity profile ratio, Q15084_C55 [15]: 1.2
- isoTOP-ABPP reactivity profile ratio, P24752_C126 [16]: 1.1
- isoTOP-ABPP reactivity profile ratio, P24752_C413 [17]: 1.1

SMILES: C#Cc1cccc(C(=O)N2CCC(N(C(=O)CCl)c3ccccc3)CC2)c1 [compound 61]
- R value for direct labeling of C360 (10 versus 100 μM probe) ([12]; Jurkat cell lysates): 2
- direct labeling of pro-CASP8 by click probe [18]: strongly labeled
